The test system of this experiment is Sclerotinia sclerotiorum. In words: Controlling test against Sclerotinia sclerotiorum on cucumber by foliage spraying (Test Example 1). The format is in vivo. To be noted: single compound, 12° C. and high humidity for 6 days. As for the experimental part:
A sand loam was filled into a plastic pot, and cucumber (Sagamihanjiro) was seeded, and grown in a greenhouse for 12 days. A flowable of the compound I, and an emulsifiable concentrate of any one of the compound II to the compound IV were diluted with water separately, and they were tank-mixed to prepare a tank mix solution containing the compound I and any one of the compounds II to IV at predetermined concentrations. The tank mix solution was subjected to foliage spraying so that it was sufficiently adhered to a leaf surface of the cucumber. After spraying, the plant was air-dried, and a PDA medium containing hyphae of Sclerotinia sclerotiorum was placed on the cucumber leaf surface. After seeding, this was placed under 12° C. and high humidity for 6 days, the controlling effect was investigated. Separately, for comparison, a flowable of the compound I, or an emulsifiable concentrate of any one compound of the compound II to the compound IV was diluted with water to prepare a water-diluted solution containing the predetermined amount of any one of compounds I to IV, and the similar controlling test was carried out. Further, for calculating an effective value, an onset area rate (ratio of onset area occupied in leaf area examined) in each treatment group was determined. The effective value was calculated by the Equation 1. […] A: Onset area rate of non-treated group B: Onset area rate of treated group In general, a effective value expected in treatment by mixing given two kinds of active ingredient compounds, i.e., an expected effective value is calculated by a Colby calculation equation of the Equation 2. E=X+Y−(X×Y)/100 “Equation 2” X: Effective value obtained by treatment with M ppm of the compound I Y: Effective value obtained by treatment with N ppm of the compound II, III or IV E: Effective value expected in treatment with M ppm of the compound I and N ppm of the compound II, III or IV (expected effective value) In addition, a synergistic effect was shown herein by a value calculated by the following Equation 3.

Where [1] appears, read: active ingredient concentration 3.1 ppm.

On to `C=CCSC(=O)n1c(N)c(-c2ccccc2C)c(=O)n1C(C)C` [Compound I], for which the Actual effective value under setting [1] is 58%.
For `Fc1ccc([C@]2(Cn3cncn3)O[C@H]2c2ccccc2Cl)cc1` (racemic) [Compound IV, (2RS,3SR)-1-[3-(2-chlorophenyl)-2,3-epoxy-2-(4-fluorophenyl)propyl]-1H-1,2,4-triazole], under setting [1], the Actual effective value is listed as 6%.
For the compound `CC1(C)CCC(Cc2ccc(Cl)cc2)C1(O)Cn1cncn1` (stereo not drawn) [Compound II, (1RS,5RS;1RS,5SR)-5-(4-chlorobenzyl)-2,2-dimethyl-1-(1H-1,2,4-triazol-1-ylmethyl)cyclopentanol], the Actual effective value is reported as 0% (active ingredient concentration 0.8 ppm) and 5% under setting [1].
Turning to `Clc1ccc(C2(Cn3cncn3)CC(Br)CO2)c(Cl)c1` (stereo not drawn) [Compound III, 1-[(2RS,4RS:2RS,4SR)-4-bromo-2-(2,4-dichlorophenyl)tetrahydrofurfuryl]-1H-1,2,4-triazole], under setting [1], the Actual effective value is given as 1%.
